# Measurements published in paper PMC8248988, “A signal capture and proofreading mechanism for the KDEL-receptor explains selectivity and dynamic range in ER retrieval” (eLife, 2021).
# Assays:
# Format in all cases: cell-based
# Conditions in all cases: COS-7 cells
# [1] = molecular target: T1, human KDELR1 E117N (Homo sapiens, UniProt P24390, E117N); assay: ER retrieval assay, KDELR1 E117N-GFP
# T1 construct: expressed in transfected cells; host or cells: COS-7
# Excerpt: (§1) To create KDELR1-GFP and KDELR2-GFP, the reading frames for Homo sapiens KDELR1 (Uniprot: P24390) and KDELR2 (Uniprot: P33947) were cloned into the pEF5/FRT low level mammalian expression vector with a C-terminal 20 amino acid linker made up of 5 copies of Gly-Ser-Ser-Ser followed by GFP. Specific point mutations were introduced using the Quickchange protocol (Stratagene) and are described in the key resources table and figures. To create the mScarlet-KDEL^sec ligand construct, mScarlet with an N-terminal hGH signal peptide and the 16 C-terminal residues of human BiP at its C-terminus, containing the KDEL signal, was cloned into the pcDNA3.1 vector. […] The Golgi marker protein TGN46 was detected by antibody (sheep anti-TGN46 AHP500G; AbD Serotec) and an Alexa 647 conjugated secondary anti-sheep secondary (A-21448, Invitrogen). In Figure 1d and e, endogenous KDELR was detected by antibody (mouse anti-KDELR ADI-VAA-PT048; Enzo Life Sciences) and Alexa 488 conjugated anti-mouse secondary antibody (A-21202, Invitrogen). For retrieval assays in other figures, KDELR-GFP fusion proteins were directly detected by fluorescence. The mScarlet-xDEL fusion proteins were directly detected by fluorescence. […] The fraction of KDEL receptor in the Golgi apparatus was calculated by dividing the Golgi signal by the total cell signal. […]
# [2] = molecular target: T2, human KDELR1 D50N (Homo sapiens, UniProt P24390, D50N); assay: ER retrieval assay, KDELR1 D50N-GFP
# T2 construct: expressed in transfected cells; host or cells: COS-7
# T2 sequence (P24390 whole entry D50N): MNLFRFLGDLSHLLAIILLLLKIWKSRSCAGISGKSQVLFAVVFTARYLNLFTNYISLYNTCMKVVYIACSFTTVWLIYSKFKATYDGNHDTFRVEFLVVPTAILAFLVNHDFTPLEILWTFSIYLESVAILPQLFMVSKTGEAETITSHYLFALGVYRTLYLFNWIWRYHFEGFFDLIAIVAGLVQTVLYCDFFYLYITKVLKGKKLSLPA
# Excerpt: as §1
# [3] = molecular target: T3, human KDELR1 N54K/E117Q (Homo sapiens, UniProt P24390, E117Q/N54K); assay: ER retrieval assay, KDELR1 N54K/E117Q-GFP
# T3 construct: expressed in transfected cells; host or cells: COS-7
# T3 sequence (P24390 whole entry N54K/E117Q): as the sequence (P24390 whole entry D50N) above, with N50D, N54K, E117Q counted along it
# Excerpt: as §1
# [4] = molecular target: T4, human KDELR1 D50N/N54K/E117Q/W120A (Homo sapiens, UniProt P24390, D50N/E117Q/N54K/W120A); assay: ER retrieval assay, KDELR1 D50N/N54K/E117Q/W120A-GFP
# T4 construct: expressed in transfected cells; host or cells: COS-7
# T4 sequence (P24390 whole entry D50N/N54K/E117Q/W120A): as the sequence (P24390 whole entry D50N) above, with N54K, E117Q, W120A counted along it
# Excerpt: as §1
# [5] = molecular target: T5, human KDELR1 E117A (Homo sapiens, UniProt P24390, E117A); assay: ER retrieval assay, KDELR1 E117A-GFP
# T5 construct: expressed in transfected cells; host or cells: COS-7
# T5 sequence (P24390 whole entry E117A): as the sequence (P24390 whole entry D50N) above, with N50D, E117A counted along it
# Excerpt: as §1
# [6] = molecular target: T6, human KDELR1 N54R (Homo sapiens, UniProt P24390, N54R); assay: ER retrieval assay, KDELR1 N54R-GFP
# T6 construct: expressed in transfected cells; host or cells: COS-7
# T6 sequence (P24390 whole entry N54R): as the sequence (P24390 whole entry D50N) above, with N50D, N54R counted along it
# Excerpt: as §1
# [7] = molecular target: T7, human KDELR1 D50N/N54K/E117Q (Homo sapiens, UniProt P24390, D50N/E117Q/N54K); assay: ER retrieval assay, KDELR1 D50N/N54K/E117Q-GFP (K. lactis like)
# T7 construct: expressed in transfected cells; host or cells: COS-7
# T7 sequence (P24390 whole entry D50N/N54K/E117Q): as the sequence (P24390 whole entry D50N) above, with N54K, E117Q counted along it
# Excerpt: as §1
# T1 sequence (P24390 whole entry E117N): as the sequence (P24390 whole entry D50N) above, with N50D, E117N counted along it
substance,measurement,setting,value
"ADEL [pcDNA3.1 hGHss-mScarlet-H. sapiens BiP639-654K651A (ADEL^SEC), secreted mScarlet fusion with human BiP C-terminus, ADEL signal]",ligand-induced receptor retrieval to the ER (in words),[1],move to the ER
same,ligand-induced receptor retrieval to the ER (in words),[2],abolished the response to all signal variants
same,ligand-induced receptor retrieval to the ER (in words),[3],switched specificity towards ADEL and DDEL
same,ligand-induced receptor retrieval to the ER (in words),[4],does not relocate from the Golgi to the ER
same,ligand-induced receptor retrieval to the ER (in words),[5],relocated to the ER
same,ligand-induced receptor retrieval to the ER (in words),[6],did not result in ADEL or DDEL recognition
same,ligand-induced receptor retrieval to the ER (in words),[7],improved the response
